Article PMC10392906 (Advances and Applications in Bioinformatics and Chemistry : …, 2023)

Biological target: T1, pancreatic porcine α-amylase (Sus scrofa, UniProt P00690)
T1 sequence (P00690 16-511): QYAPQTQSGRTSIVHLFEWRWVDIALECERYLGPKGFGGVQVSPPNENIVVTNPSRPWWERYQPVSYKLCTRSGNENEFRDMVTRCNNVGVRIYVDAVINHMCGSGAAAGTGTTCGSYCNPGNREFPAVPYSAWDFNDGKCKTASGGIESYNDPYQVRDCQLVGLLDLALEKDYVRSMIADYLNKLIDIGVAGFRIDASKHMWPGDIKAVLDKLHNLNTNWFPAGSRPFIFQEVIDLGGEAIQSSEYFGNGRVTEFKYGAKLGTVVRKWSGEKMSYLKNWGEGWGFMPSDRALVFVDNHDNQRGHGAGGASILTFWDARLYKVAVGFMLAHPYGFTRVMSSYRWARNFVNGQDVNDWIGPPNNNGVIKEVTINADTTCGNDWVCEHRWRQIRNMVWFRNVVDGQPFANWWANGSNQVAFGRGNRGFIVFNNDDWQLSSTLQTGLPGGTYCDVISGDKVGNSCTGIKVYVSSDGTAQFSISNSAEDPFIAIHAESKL
Experiment: α-Amylase inhibitory assay
Type: biochemical
Conditions: for inhibition at 10 µg/mL: read-out: % of Inhibition of α-amylase (Mean ± S.D.), 10 µg/mL

| % of Inhibition of α-amylase (Mean ± S.D.) (10 µg/mL) [%] | inhibition at 10 µg/mL [%] | α-amylase inhibitory effect better than acarbose (versus acarbose) | Molecule |
| --- | --- | --- | --- |
| 85.32±0.36 | – | – | 4-(-2-(3-(4-(Dimethylamino)phenyl)-4,5-Dihydro-1H-Pyrazol-5-yl)vinyl)-2-Methoxyphenol [Compound 8] |
| – | 85.17 ± 0.55 | – | COc1cc(C=Cc2cc(-c3ccccc3)nc(O)n2)ccc1O [Compound 11, 4-(4-Hydroxy-3-Methoxystyryl)-6-Phenylpyrimidin-2-ol] |
| – | 87.15 ± 0.46 | up to 2 fold | COc1cc(C=CC(=O)CC(c2ccc(N(C)C)cc2)n2ccnc2)ccc1O (stereo not shown) [Compound 16, 5-(4-(Dimethylamino)phenyl)-1-(4-Hydroxy-3-Methoxyphenyl)-5-(1H-Imidazol-1-yl)pent-1-En-3-One] |
